Measured values: ChEMBL document CHEMBL4765241, “Identification and Preclinical Pharmacology of ((1 R,3 S)-1-Amino-3-(( S)-6-(2-methoxyphenethyl)-5,6,7,8-tetrahydronaphthalen-2-yl)cyclopentyl)methanol (BMS-986166): A Differentiated Sphingosine-1-phosphate Receptor 1 (S1P) Modulator Advanced into Clinical Trials” (J Med Chem, 2019)
Active and inactive are the calls of the source. The calls are words filed in the database; no cut-off is given here.

Tests used:
[1] = tested on: Rattus norvegicus; test: Reduction in circulating lymphocytes in Lewis rat blood assessed as effective dose after oral dosing measured at 24 hrs by hematology analyzer based analysis; assay type: functional
[2] = Clearance in Sprague-Dawley rat at 1 mg/kg, iv; assay type: ADME, organism-based; conditions: in vivo
[3] = Terminal half-life in Sprague-Dawley rat at 1 mg/kg, iv; assay type: ADME, organism-based; conditions: in vivo, read-out: beta t1/2 (converted)
[4] = Terminal half-life in beagle dog at 1 mg/kg, iv; assay type: ADME, organism-based, Canis lupus familiaris; conditions: in vivo, read-out: beta t1/2 (converted)
[5] = Oral bioavailability in cynomolgus monkey at 1 mg/kg; assay type: ADME, organism-based, Macaca fascicularis; conditions: in vivo
[6] = AUC ratio in orally dosed Sprague-Dawley rat blood assessed as phosphate metabolite to parent compound; assay type: ADME, organism-based; conditions: in vivo, po
[7] = target: T1, Cytochrome P450 2B6 (Homo sapiens, UniProt P20813); test: Inhibition of CYP2B6 (unknown origin); assay type: ADME
T1 sequence (P20813 whole entry): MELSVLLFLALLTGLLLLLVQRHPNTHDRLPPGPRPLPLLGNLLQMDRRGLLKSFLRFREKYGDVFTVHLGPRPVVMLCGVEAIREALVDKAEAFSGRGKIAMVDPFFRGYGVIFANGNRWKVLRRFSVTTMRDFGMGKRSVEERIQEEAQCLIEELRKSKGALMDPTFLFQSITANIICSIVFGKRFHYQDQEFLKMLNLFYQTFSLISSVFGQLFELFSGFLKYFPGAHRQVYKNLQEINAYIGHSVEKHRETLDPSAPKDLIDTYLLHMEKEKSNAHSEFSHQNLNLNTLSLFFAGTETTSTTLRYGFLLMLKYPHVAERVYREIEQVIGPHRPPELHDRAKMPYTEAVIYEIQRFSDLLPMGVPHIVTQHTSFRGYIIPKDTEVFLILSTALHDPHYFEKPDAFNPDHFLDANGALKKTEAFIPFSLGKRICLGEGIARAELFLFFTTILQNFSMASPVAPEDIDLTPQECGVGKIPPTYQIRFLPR

[8] = target: T2, Cytochrome P450 2C8 (Homo sapiens, UniProt P10632); test: Inhibition of CYP2C8 (unknown origin); assay type: ADME
T2 sequence (P10632 whole entry): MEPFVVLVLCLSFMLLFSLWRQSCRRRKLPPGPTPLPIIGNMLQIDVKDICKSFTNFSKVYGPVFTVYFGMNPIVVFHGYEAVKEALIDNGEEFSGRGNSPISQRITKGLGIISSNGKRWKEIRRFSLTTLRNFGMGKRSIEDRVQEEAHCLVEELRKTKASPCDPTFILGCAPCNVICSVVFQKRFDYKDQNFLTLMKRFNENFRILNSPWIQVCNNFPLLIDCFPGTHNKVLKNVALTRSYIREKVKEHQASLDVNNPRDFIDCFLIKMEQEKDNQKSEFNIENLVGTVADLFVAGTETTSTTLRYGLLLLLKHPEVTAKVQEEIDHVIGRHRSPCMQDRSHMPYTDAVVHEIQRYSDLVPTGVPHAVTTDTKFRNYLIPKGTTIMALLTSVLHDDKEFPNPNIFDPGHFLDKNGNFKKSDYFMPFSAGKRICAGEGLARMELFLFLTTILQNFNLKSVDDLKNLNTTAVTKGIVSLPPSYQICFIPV

[9] = Protein binding in human assessed as bound fraction; assay type: ADME; conditions: read-out: PB
[10] = Metabolic stability in human liver microsomes assessed as half-life measured upto 120 mins in presence of NADPH-generating system by LC/MS/MS analysis; assay type: ADME, Microsome
[11] = tested on: Mus musculus; test: Immunosuppressive activity in MOG (35 to 55 residues)/pertussis toxin-induced experimental autoimmune encephalomyelitis C57BL/6 mouse model assessed as reduction in EAE clinical scores at 0.1 to 0.5 mg/kg, po QD starting from day 1 post immunization and observed at day 12 until day 24 relative to control; assay type: functional, organism-based; conditions: dose 0.1-0.5 mg/kg
[12] = tested on: Mus musculus; test: Antiarthritic activity in DBA/1 mouse model of collagen-induced arthritis assessed as reduction in clinical score administered orally once daily as single dose for 21 days; assay type: functional, organism-based; conditions: time 21.0 day
[13] = tested on: Mus musculus; test: Antiarthritic activity in DBA/1 mouse model of collagen-induced arthritis assessed as maximum efficacy causing reduction in paw histological score administered orally once daily as single dose for 21 days; assay type: functional; conditions: time 21 day
[14] = tested on: Mus musculus; test: Immunosuppressive activity in MOG (35 to 55 residues)/pertussis toxin-induced experimental autoimmune encephalomyelitis C57BL/6 mouse model assessed as maximum efficacy causing reduction in EAE clinical score administered orally once daily starting from day 1 post immunization and measured thrice weekly until day 24; assay type: functional

Structure (SMILES): COc1ccccc1CC[C@@H]1CCc2cc([C@H]3CC[C@](N)(CO)C3)ccc2C1 [UDIFITIMOD]
- ED50 [1]: 0.1 mg/kg
- clearance [2]: 9.7 mL/min/kg
- half-life [3]: 38 h
- half-life [4]: 165 h
- bioavailability [5]: 76%
- Ratio AUC [6]: 5.2
- IC50 [7]: 17 µM
- IC50 [8]: 8.6 µM
- fraction unbound [9]: < 0.001
- half-life [10]: 4.03 h
- Activity [11]: Active
- Activity [12]: Active
- Emax [13]: 0.5 mg/kg/day
- Emax [14]: 0.5 mg/kg/day
